This assay concerns the target T1, recombinant human SAE enzyme (Homo sapiens, UniProt Q9UBT2).
T1 sequence (Q9UBT2 1-640): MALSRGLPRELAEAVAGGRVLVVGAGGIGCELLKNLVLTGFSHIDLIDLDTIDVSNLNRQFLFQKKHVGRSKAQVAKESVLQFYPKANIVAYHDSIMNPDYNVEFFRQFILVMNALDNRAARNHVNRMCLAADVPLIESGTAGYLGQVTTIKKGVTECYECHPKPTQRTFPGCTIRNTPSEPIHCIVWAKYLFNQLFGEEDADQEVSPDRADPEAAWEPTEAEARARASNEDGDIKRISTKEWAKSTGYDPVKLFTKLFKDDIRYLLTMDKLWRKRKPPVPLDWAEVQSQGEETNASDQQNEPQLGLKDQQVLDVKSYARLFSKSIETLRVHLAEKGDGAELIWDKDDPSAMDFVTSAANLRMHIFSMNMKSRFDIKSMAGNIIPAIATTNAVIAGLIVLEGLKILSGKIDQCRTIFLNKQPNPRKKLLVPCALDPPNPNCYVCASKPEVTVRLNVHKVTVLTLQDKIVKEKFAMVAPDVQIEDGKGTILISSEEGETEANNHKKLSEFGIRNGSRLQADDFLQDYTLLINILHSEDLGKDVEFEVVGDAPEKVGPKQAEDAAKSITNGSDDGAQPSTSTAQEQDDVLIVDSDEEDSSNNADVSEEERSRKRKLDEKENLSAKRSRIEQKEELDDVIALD
T1 sequence (Q9UBE0 1-346 partner): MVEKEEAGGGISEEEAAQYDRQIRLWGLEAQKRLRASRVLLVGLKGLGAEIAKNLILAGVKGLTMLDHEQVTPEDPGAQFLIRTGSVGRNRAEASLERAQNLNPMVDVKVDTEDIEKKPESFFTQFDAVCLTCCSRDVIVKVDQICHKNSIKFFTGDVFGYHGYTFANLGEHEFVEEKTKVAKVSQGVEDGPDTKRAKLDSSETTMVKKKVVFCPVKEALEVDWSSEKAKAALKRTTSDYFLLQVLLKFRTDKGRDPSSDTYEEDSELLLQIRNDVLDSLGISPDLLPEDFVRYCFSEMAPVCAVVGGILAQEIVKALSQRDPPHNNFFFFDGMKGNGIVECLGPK
Put plainly: SAE HTRF Enzyme Assay. Format: biochemical. As to conditions: for IC50: class symbols A-C; for inhibition at 0.111 µM: read-out: Percent Inhibition. In a few lines: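 Measured as FRET after a 2 h antibody step: SAE (0.11 nM) thioester transfer of Sumo-Flag to Ubc9-GST, 0.5 μM ATP, 24° C for 105 min, quenched with 20 mM EDTA. Output is IC50 or percent inhibition at a single concentration.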
In general terms: In TR-FRET formats the signal depends on donor and acceptor labels being close together.

[1] abbreviates: compound concentration 0.111 μM.

SMILES strings stand for the structures.

What is called IC50 is the concentration at which inhibition is half-maximal. As a reminder, the inhibition is the share of the control response that was lost under treatment.

With `NS(=O)(=O)OC[C@H]1C[C@@H](Nc2ncncc2C(=O)c2cc(Cl)n(Cc3ccc(C(F)(F)F)o3)c2)[C@@H](F)[C@@H]1O` [Compound I-36, [(1R,2R,3R,4R)-4-({5-[(5-chloro-1-{[5-(trifluoromethyl)-2-furyl]methyl}-1H-pyrrol-3-yl)carbonyl]pyrimidin-4-yl}amino)-3-fluoro-2-hydroxycyclopentyl]methyl sulfamate], the IC50 was less than 10 nM. In addition, under setting [1], the inhibition at 0.111 µM stood at 99%.

On to `NS(=O)(=O)OC[C@H]1C[C@@H](Nc2ccncc2C(=O)c2ccn(Cc3cccc(C(F)(F)F)c3)n2)C[C@@H]1O` [Compound I-262, [(1R,2S,4R)-2-hydroxy-4-{[3-({1-[3-(trifluoromethyl)benzyl]-1H-pyrazol-3-yl}carbonyl)pyridin-4-yl]amino}cyclopentyl]methyl sulfamate], for which the 50% inhibitory concentration (IC50) is less than 10 nM. In addition, the inhibition at 0.111 µM under setting [1] was determined as 96%.

On to `NS(=O)(=O)OC[C@H]1C[C@@H](Nc2ncncc2C(=O)c2ccn(Cc3cccc4nccn34)c2)[C@@H](F)[C@@H]1O` [Compound I-237, {(1R,2R,3R,4R)-3-fluoro-2-hydroxy-4-[(5-{[1-(imidazo[1,2-a]pyridin-5-ylmethyl)-1H-pyrrol-3-yl]carbonyl}pyimidin-4-yl)amino]cyclopentyl}methyl sulfamate], for which the half-maximal inhibitory concentration (IC50) lay within 10 to 100 nM. The inhibition at 0.111 µM under setting [1] turned out to be 85%.

Regarding `NS(=O)(=O)OC[C@H]1C[C@@H](Nc2ncncc2C(=O)c2ccn(Cc3sc4ccccc4c3Cl)c2)[C@@H](F)[C@@H]1O` [Compound I-49, [(1R,2R,3R,4R)-4-{[5-({1-[(3-chloro-1-benzothiophen-2-yl)methyl]-1H-pyrrol-3-yl}carbonyl)pyrimidin-4-yl]amino}-3-fluoro-2-hydroxycyclopentyl]methyl sulfamate], the IC50 is less than 10 nM. The inhibition at 0.111 µM under setting [1] stood at 93%.

`NS(=O)(=O)OC[C@H]1C[C@@H](Nc2ncncc2C(=O)c2cc(Cl)n(Cc3cccc(I)c3)c2)[C@@H](F)[C@@H]1O` [Compound I-310, {(1R,2R,3R,4R)-4-[(5-{[5-chloro-1-(3-iodobenzyl)-1H-pyrrol-3-yl]carbonyl}pyrimidin-4-yl)amino]-3-fluoro-2-hydroxycyclopentyl}methyl sulfamate]: the IC50 is less than 10 nM. The inhibition at 0.111 µM under setting [1] is 98%.

`NS(=O)(=O)OC[C@H]1C[C@@H](Nc2ncncc2C(=O)c2ccn(Cc3ccc(Cl)c(Cl)c3)c2)[C@@H](F)[C@@H]1O` [Compound I-331, {(1R,2R,3R,4R)-4-[(5-{[1-(3,4-dichlorobenzyl)-1H-pyrrol-3-yl]carbonyl}pyrimidin-4-yl)amino]-3-fluoro-2-hydroxycyclopentyl}methyl sulfamate]: the half-inhibitory concentration (IC50) was less than 10 nM. Also, under setting [1], the inhibition at 0.111 µM worked out at 99%.

Regarding `NS(=O)(=O)OC[C@H]1C[C@@H](Nc2ncncc2C(=O)c2ccn(CC3CCOCC3)c2)[C@@H](F)[C@@H]1O` [Compound I-222, {(1R,2R,3R,4R)-3-fluoro-2-hydroxy-4-[(5-{[1-(tetrahydro-2H-pyran-4-ylmethyl)-1H-pyrrol-3-yl]carbonyl}pyrimidin-4-yl)amino]cyclopentyl}methyl sulfamate], the half-inhibitory concentration (IC50) was 10 to 100 nM. Moreover, the inhibition at 0.111 µM under setting [1] is 63%.

For the molecule `CC1(C)CCC(Cn2ccc(C(=O)c3cncnc3N[C@@H]3C[C@H](COS(N)(=O)=O)[C@@H](O)[C@@H]3F)c2)O1` (mixture of isomers) [Compound I-250, [(1R,2R,3R,4R)-4-({5-[(1-{[(2R)-5,5-dimethyltetrahydrofuran-2-yl]methyl}-1H-pyrrol-3-yl)carbonyl]pyrimidin-4-yl}amino)-3-fluoro-2-hydroxycyclopentyl]methyl sulfamate and [(1R,2R,3R,4R)-4-({5-[(1-{[(2S)-5,5-dimethyltetrahydrofuran-2-yl]methyl}-1H-pyrrol-3-yl)carbonyl]pyrimidin-4-yl}amino)-3-fluoro-2-hydroxycyclopentyl]methyl sulfamate], the half-maximal inhibitory concentration (IC50) lay within 10 to 100 nM. In addition, under setting [1], the inhibition at 0.111 µM turned out to be 86%.

Consider `Cc1cc(C(=O)c2cncnc2N[C@@H]2C[C@H](COS(N)(=O)=O)[C@@H](O)[C@@H]2F)cn1Cc1cccc(Br)c1` [Compound I-71, {(1R,2R,3R,4R)-4-[(5-{[1-(3-bromobenzyl)-5-methyl-1H-pyrrol-3-yl]carbonyl}pyrimidin-4-yl)amino]-3-fluoro-2-hydroxycyclopentyl}methyl sulfamate], for which the IC50 is less than 10 nM. Further, the inhibition at 0.111 µM under setting [1] stood at 100%.

As to `NS(=O)(=O)OC[C@H]1C[C@@H](Nc2ncncc2C(=O)c2ccn(Cc3cccc(-c4ccccc4)c3)n2)[C@H](O)[C@@H]1O` [Compound I-278, {(1R,2R,3S,4R)-4-[(5-{[1-(biphenyl-3-ylmethyl)-1H-pyrazol-3-yl]carbonyl}pyrimidin-4-yl)amino]-2,3-dihydroxycyclopentyl}methyl sulfamate], the IC50 was less than 10 nM. Further, the inhibition at 0.111 µM under setting [1] was found to be 97%.

For `NS(=O)(=O)OC[C@H]1C[C@@H](Nc2ncncc2C(=O)c2ccn(C3C=CCCC3)n2)C[C@@H]1O` (mixture of isomers) [Compound I-302, [(1R,2S,4R)-4-{[5-({1-[(1R)-cyclohex-2-en-1-yl]-1H-pyrazol-3-yl}carbonyl)pyrimidin-4-yl]amino}-2-hydroxycyclopentyl]methyl sulfamate and [(1R,2S,4R)-4-{[5-({1-[(1S)-cyclohex-2-en-1-yl]-1H-pyrazol-3-yl}carbonyl)pyrimidin-4-yl]amino}-2-hydroxycyclopentyl]methyl sulfamate], the half-maximal inhibitory concentration (IC50) fell in the range of 100 to 1000 nM. For the same molecule, under setting [1], the inhibition at 0.111 µM is 34%.

Regarding `C=CC(=O)N(C)c1cccc(Cn2ccc(C(=O)c3cncnc3N[C@@H]3C[C@H](COS(N)(=O)=O)[C@@H](O)[C@@H]3F)n2)c1` [Compound I-116, [(1R,2R,3R,4R)-4-({5-[(1-{3-[Acryloyl(methyl)amino]benzyl}-1H-pyrazol-3-yl)carbonyl]pyrimidin-4-yl}amino)-3-fluoro-2-hydroxycyclopentyl]methyl sulfamate], the IC50 was 100 to 1000 nM. In addition, the inhibition at 0.111 µM under setting [1] was 33%.

For the molecule `NS(=O)(=O)OC[C@H]1C[C@@H](Nc2ncncc2C(=O)c2ccn(Cc3cc(C(F)(F)F)ccc3C(F)(F)F)n2)C[C@@H]1O` [Compound I-261, [(1R,2S,4R)-4-{(5-({1-[2,5-bis(trifluoromethyl)benzyl]-1H-pyrazol-3-yl}carbonyl)pyrimidin-4-yl]amino}-2-hydroxycyclopentyl]methyl sulfamate], the IC50 was less than 10 nM. For the same molecule, under setting [1], the inhibition at 0.111 µM was determined as 97%.

With `NS(=O)(=O)OC[C@H]1C[C@@H](Nc2ccncc2C(=O)c2ccn(Cc3cccc(OC(F)F)c3)n2)C[C@@H]1O` [Compound I-246, [(1R,2S,4R)-4-{[3-({1-[3-(difluoromethoxy)benzyl]-1H-pyrazol-3-yl}carbonyl)pyridin-4-yl]amino}-2-hydroxycyclopentyl]methyl sulfamate], the IC50 was less than 10 nM. The inhibition at 0.111 µM under setting [1] is 97%.

For the molecule `NS(=O)(=O)OC[C@H]1C[C@@H](Nc2ncncc2C(=O)c2ccn(Cc3cc(F)c(F)cc3F)n2)C[C@@H]1O` [Compound I-329, {(1R,2S,4R)-2-hydroxy-4-[(5-{[1-(2,4,5-trifluorobenzyl)-1H-pyrazol-3-yl]carbonyl}pyrimidin-4-yl)amino]cyclopentyl}methyl sulfamate], the IC50 was less than 10 nM. Further, the inhibition at 0.111 µM under setting [1] was 93%.

`CC(c1ccc(Cl)o1)n1ccc(C(=O)c2cncnc2N[C@@H]2C[C@H](COS(N)(=O)=O)[C@@H](O)[C@@H]2F)c1` (single isomer, unassigned) [Compound I-364, [(1R,2R,3R,4R)-4-{[5-({1-[(1S)-1-(5-chloro-2-furyl)ethyl]-1H-pyrrol-3-yl}carbonyl)pyrimidin-4-yl]amino}-3-fluoro-2-hydroxycyclopentyl]methyl sulfamate or [(1R,2R,3R,4R)-4-{[5-({1-[(1R)-1-(5-chloro-2-furyl)ethyl]-1H-pyrrol-3-yl}carbonyl)pyrimidin-4-yl]amino}-3-fluoro-2-hydroxycyclopentyl]methyl sulfamate]: the 50% inhibitory concentration (IC50) is less than 10 nM. Also, the “Percent Inhibition” value (compound concentration 0.111 μM, 0.111 µM) came out at 99%.

With `Cc1cc(Cn2ccc(C(=O)c3cncnc3N[C@@H]3C[C@H](COS(N)(=O)=O)[C@@H](O)C3)n2)no1` [Compound I-348, [(1R,2S,4R)-2-hydroxy-4-{[5-({1-[(5-methylisoxazol-3-yl)methyl]-1H-pyrazol-3-yl}carbonyl)pyrimidin-4-yl]amino}cyclopentyl]methyl sulfamate], the concentration for half-maximal inhibition (IC50) was less than 10 nM. Also, the inhibition at 0.111 µM under setting [1] turned out to be 94%.

The values are drawn from patent US9695154B2, “Heteroaryl inhibitors of sumo activating enzyme” (MILLENNIUM PHARMACEUTICALS, INC., priority 2013, dated 2017).
